Reference: publication PMC9856044 (Biomolecules, 2023)

Columns and labels:
poly A–poly U (AU-RNA) = assay: Fluorimetric titration with AU-RNA; format: binding
Procedure: Materials. Polynucleotides were purchased as noted: poly A–poly U, calf thymus ctDNA, poly(dAdT)2 and poly(dGdC)2 (Sigma-Aldrich, St. Louis, MI, USA). Polynucleotides were dissolved in Na-cacodylate buffer, I = 0.05 mol dm^−3, pH = 7.0. The calf thymus ctDNA was additionally sonicated and filtered through a […]. Polynucleotide concentration was determined spectroscopically as the concentration of phosphates. Spectrophotometric titrations were performed at pH = 7.0 (I = 0.05 mol dm^−3, sodium cacodylate buffer) by adding aliquots of polynucleotide solution into the solution of the studied compound for fluorimetric experiments and CD experiments were done by adding aliquots of the compound stock solution into the solution of a polynucleotide. In fluorimetric experiments, an excitation wavelength of λexc = 425, 431, 423, 427, 406 and 407 nm, respectively, was used to avoid the inner filter effect caused due to increasing absorbance of the polynucleotide. Emission was collected in the range λem = 400–700 nm. Values for Ka obtained by processing titration data using the Scatchard equation [27], all have satisfactory correlation coefficients (≥0.98). Furthermore, linear changes were evident with increasing DNA or RNA concentration in most titrations. The exceptions to this were titrations of cyanine 3 with GC-DNA and titrations of dye 5 with ds-DNA and ds-RNA where sufficient data points in the non-linear part of the curve allowed estimation of binding affinity (Ka values were of the order 10^5 mol^−1 dm^−3; Figures S16, S22 and S23 in SI). Titration data were collected at a high excess of polynucleotide binding sites (r[1–6]/[nucleotide phosphate] < 0.1; see Figures S9–S26 in SI) where each molecule can bind to a separate binding site. Binding affinities of dye-DNA/RNA complexes were calculated by non-linear fitting using the Scatchard equation [27, 33]. The fluorescence changes of dye 5 in the titration with AT-DNA were too small to obtain an accurate binding constant (Figure S21 in SI).

poly(dAdT)2 (AT-DNA) = assay: Thermal melting of AT-DNA; format: binding; details: r [compound]/[nucleotide phosphate] = 0.1
Procedure: Thermal melting curves for DNA, RNA and their complexes with studied compounds were determined as previously described by following the absorption change at 260 nm as a function of temperature. The absorbance of the ligands was subtracted from every curve and the absorbance scale was normalized. Tm values are the midpoints of the transition curves determined from the maximum of the first derivative and checked graphically by the tangent method. The ∆Tm values were calculated by subtracting Tm of the free nucleic acid from Tm of the complex. Every ∆Tm value here reported was the average of two measurements. The error in ∆Tm is ±0.5 °C. 5′-AGGG(TTAGGG)3–3′(Tel22) was obtained from IDT (Integrated DNA Technologies, Coralville, IA, USA). Tel22 was dissolved in 0.1 M either in sodium cacodylate or potassium phosphate buffer. The starting Tel22 oligonucleotide solution was first heated up to 95 °C for 10 min, then slowly cooled to 10 °C at the cooling rate of 1 °C/min to allow DNA oligonucleotide to adopt a G-quadruplex structure. The G-quadruplex structure was confirmed by thermal melting and CD spectra. The concentration of G quadruplex was expressed in terms of oligonucleotide structure. In fluorimetric titrations, aliquots of Tel 22 solution were added to the solution of ligands (c ~ 2 × 10^−7 M, in SI).
Binding abilities of 1–6 compounds were further explored by thermal melting experiments. […]

C[n+]1c(/C=C2\Sc3ccccc3N2CCCS)[se]c2ccccc21 [Compound 5, 2-((3-(3-mercaptopropyl)benzo[d]thiazol-2(3H)-ylidene)methyl)-3-methylbenzo[d][1,3]selenazol-3-ium methosulphate]
log Ka (poly A–poly U (AU-RNA); AU-RNA): 5
Ka (order of magnitude) (poly A–poly U (AU-RNA); ds-RNA (AU-RNA), sodium cacodylate buffer, pH 7.0, I = 0.05 mol dm^−3, Scatchard equation): ~10^5 mol^−1 dm^−3
K (fit parameter of titration curve) (poly A–poly U (AU-RNA); poly A – poly U, pH=7.0, sodium cacodylate buffer, I = 0.05 mol dm-3): 133756.34591 ±30379564.80418
∆Tm value (poly(dAdT)2 (AT-DNA)): 4 °C
